{
  "source": "paper PMC9054013",
  "about": "“FCHO controls AP2’s initiating role in endocytosis through a PtdIns(4,5)P2-dependent switch” (Science Advances, 2022)",
  "key": {"Cμ2": {"molecular_target": "T1, Cμ2", "T1 construct": "Surface representations of the Cμ2 subdomain structure; His6; made in house; host or cells: Escherichia coli BL21 plyS", "settings": "read-out: KD of YxxΦ cargo peptide binding to Cμ2; cited from earlier work", "source_text": "page 20: Fig.S8 Details of FCHO C block binding to α -appendage and to Cµ2 A, B FCHO1 C block (claret) bound to AP2 α-appendage (blue). […] B 1.4 Å resolution 2Fo-Fc map contoured at 1.6σ. An apo structure of the α-appendage was used as MR search model (PDB 1W80 without ligands) – the direction of the peptide chain is clearly opposite to that of the published DP[FW], FxDxF motif/α-appendage complexes. C, D FCHO2 C block (claret ..."}, "AP2 α-appendage": {"molecular_target": "T2, AP2 α-appendage (Mus musculus, UniProt P17427)", "T2 construct": "GST-tagged Cμ2 and α-appendage proteins were made as in ([51]); GST (cleaved yes); made in house; host or cells: Escherichia coli BL21 plyS", "T2 sequence (P17427 701-938 limits assumed)": "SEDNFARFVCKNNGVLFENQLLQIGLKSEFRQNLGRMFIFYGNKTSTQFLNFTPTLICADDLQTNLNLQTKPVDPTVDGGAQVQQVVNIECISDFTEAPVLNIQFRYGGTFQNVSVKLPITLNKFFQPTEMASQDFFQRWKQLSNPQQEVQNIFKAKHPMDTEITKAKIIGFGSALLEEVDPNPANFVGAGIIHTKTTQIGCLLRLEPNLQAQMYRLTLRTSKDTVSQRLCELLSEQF", "test": "Isothermal titration calorimetry with α-appendage", "type": "binding", "settings": "ITC"}, "[1]": {"tested_on": "BR4-mutated (K339A, K341A, K343A, and K345A) His6-MBP-Cμ2", "test": "GST pull-down of BR4-mutated His6-MBP-Cμ2", "type": "binding", "settings": "Coomassie SDS-PAGE", "procedure": "A measured amount of GST or GST-fusion protein was immobilized onto 60 μl of 50% slurry of GSH Sepharose beads in microfuge tubes and the volume made up to 750 μl with buffer. After incubation at 4°C with continuous mixing, the Sepharose beads were recovered by centrifugation (10,000g for 1 min), and the supernatants were removed. Each bead pellet was washed three times with cold assay buffer, and most of the buffer was carefully aspirated, leaving a final equivalent volume of ~50 μl."}},
  "note": "Where no end group is shown, it is not given here.",
  "data": [
    {"substance": "DYQRLN [TGN38, TGN38 YxxΦ cargo peptide (DYQRLN)]", "values": [
      {"measurement": "Kd", "setting": "Cμ2", "result": "~2000", "unit": "nM"}
    ]},
    {"substance": "FCHO1 C: GST-FCHO1 C (residues 414 to 444), Fig. 4B construct ({GST}-SAPRTSSCAERLQSEEQVSKNLFGPPLESAF; UniProt O14526 414-444, looked up, fragment)", "values": [
      {"measurement": "n (stoichiometry) of C block peptide binding to α-appendage", "setting": "AP2 α-appendage", "result": 1.0}
    ]},
    {"substance": "FCHO2 C: GST-FCHO2 C (residues 413 to 444), Fig. 4B construct ({GST}-SAPPNEKGTSDLLAWDPLFGPSLDSSSSSSLT; UniProt Q0JRZ9 413-444, looked up, fragment)", "values": [
      {"measurement": "n (stoichiometry) of C block peptide binding to α-appendage", "setting": "AP2 α-appendage", "result": 1.0}
    ]},
    {"substance": "SDLLAWDPLFG [FCHO2 C peptide]", "values": [
      {"measurement": "Kd", "setting": "AP2 α-appendage; 100 mM tris pH 7.4, 150 mM NaCl, 0.25 mM TCEP, 12°C, mean ± SEM, minimum three independent runs, read-out: KD of C block peptide binding to α-appendage", "result": "100 to 200", "unit": "µM"}
    ]},
    {"substance": "SERINC3-L10: GST SERINC-L10 (residues 354 to 404), Serinc3 loop binding Cμ2 only at BR4 (RTSTNSQVDKLTLSGSDSVILGDTTTSGASDEEDGQPRRAVDNEKEGVQYS; also: GST fusion, end not given here)", "values": [
      {"measurement": "binding to BR4-mutated Cμ2 compared with WT Cμ2", "setting": "[1]", "result": "severely inhibited"}
    ]}
  ]
}
